Consider 5 compounds from patent US7998999B2, “Cyclohexyl substituted pyrrolidinones as inhibitors of 11-beta-hydroxysteroid dehydrogenase 1” (Eli Lilly and Company, priority 2006, dated 2011).

The target of assay [1] is recombinant human 11β-HSD type 1 enzyme (Homo sapiens, UniProt P28845). Put plainly: 11β-HSD Type 1 Enzyme Assay (NADPH fluorescence). The assay is classed as biochemical. The note with it: three hour incubation at room temperature, read-out: Human 11-βHSD1 IC50. The procedure: 11β-HSD Type 1 Enzyme Assay
Human 11β-HSD type 1 activity is measured by assaying NADPH production by fluorescence assay. Solid compounds are dissolved in DMSO to a concentration of 10 mM. Twenty microliters of each are then transferred to a column of a 96-well polypropylene Nunc plate where they are further diluted 50-fold followed by subsequent two-fold titration, ten times across the plate with additional DMSO using a Tecan Genesis 200 automated system. Plates are then transferred to a Tecan Freedom 200 system with an attached Tecan Temo 96-well head and an Ultra 384 plate reader. Reagents are supplied in 96-well polypropylene Nunc plates and are dispensed individually into black 96-well Molecular Devices High Efficiency assay plates (40 μL/well capacity) in the following fashion: 9 μL/well of substrate (2.22 mM NADP, 55.5 μM Cortisol, 10 mM Tris, 0.25% Prionex, 0.1% Triton ×100), 3 μL/well of water to compound wells or 3 μL to control and standard wells, 6 μL/well recombinant human 11β-HSD type 1 enzyme, 2 μL/well of compound dilutions. For ultimate calculation of percent inhibition, a series of wells are added that represent assay minimum and maximum: one set containing substrate with 667 μM carbenoxolone (background), and another set containing substrate and enzyme without compound (maximum signal). Final DMSO concentration is 0.5% for all compounds, controls and standards. Plates are then placed on a shaker by the robotic arm of the Tecan for 15 seconds before being covered and stacked for a three hour incubation period at room temperature. Upon completion of this incubation, the Tecan robotic arm removes each plate individually from the stacker and places them in position for addition of 5 μL/well of a 250 μM carbenoxolone solution to stop the enzymatic reaction. Plates are then shaken once more for 15 seconds then placed into an Ultra 384 microplate reader (355EX/460EM) for detection of NADPH fluorescence.

Assay [2] has as its target T1, 11β-HSD1 in primary human aortic smooth muscle cells (AoSMC) (Homo sapiens, UniProt P28845).
T1 construct: containing 12 ng/mL hTNFα to induce expression of 11β-HSD1; endogenous in cells; host or cells: primary human aortic smooth muscle cells (AoSMC), induced with hTNFα
The experiment in a line: Human Aortic Smooth Muscle Cell Assay (cortisone to cortisol conversion). The assay is classed as cell-based. The note with it: AoSMC induced with hTNFα, 10 μM cortisone, cortisol by time resolved immunoassay. The procedure:
Human Aortic Smooth Muscle Cell Assay
Primary human aortic smooth muscle cells (AoSMC) are cultured in 5% FBS growth medium to a passage number of 6, then pelleted by centrifugation and resuspended at a density of 9×10^4 cells/mL in 0.5% FBS assay medium containing 12 ng/mL hTNFα to induce expression of 11β-HSD1. Cells are seeded into 96-well tissue culture assay plates at 100 μL/well (9×10^3 cells/well) and incubated for 48 hours at 37° C., 5% CO2. Following induction, cells are incubated for 4 hours at 37° C., 5% CO2 in assay medium containing test compounds then treated with 10 μL/well of 10 μM cortisone solubilized in assay medium, and incubated for 16 hours at 37° C., 5% CO2. Medium from each well is transferred to a plate for subsequent analysis of cortisol using a competitive fluorescence resonance time resolved immunoassay. In solution, an allophycocyanin (APC)-cortisol conjugate and free cortisol analyte compete for binding to a mouse anti-cortisol antibody/Europium (Eu)-anti mouse IgG complex. Higher levels of free cortisol result in diminishing energy transfer from the Europium-IgG to the APC-cortisol complex resulting in less APC fluorescence. Fluorescent intensities for Europium and APC are measured using a LJL Analyst AD. Europium and APC excitation is measured using 360 nm excitation and 615 nm and 650 nm emission filters respectively. Time resolved parameters for Europium were 1000 μs integration time with a 200 μs delay. APC parameters are set at 150 μs integration time with a 50 μs delay. Fluorescent intensities measured for APC are modified by dividing by the Eu fluorescence (APC/Eu). This ratio is then used to determine the unknown cortisol concentration by interpolation using a cortisol standard curve fitted with a 4-parameter logistic equation. These concentrations are then used to determine compound activity by plotting concentration versus % inhibition, fitting with a 4-parameter curve and reporting the IC50.

T1 sequence (P28845 whole entry): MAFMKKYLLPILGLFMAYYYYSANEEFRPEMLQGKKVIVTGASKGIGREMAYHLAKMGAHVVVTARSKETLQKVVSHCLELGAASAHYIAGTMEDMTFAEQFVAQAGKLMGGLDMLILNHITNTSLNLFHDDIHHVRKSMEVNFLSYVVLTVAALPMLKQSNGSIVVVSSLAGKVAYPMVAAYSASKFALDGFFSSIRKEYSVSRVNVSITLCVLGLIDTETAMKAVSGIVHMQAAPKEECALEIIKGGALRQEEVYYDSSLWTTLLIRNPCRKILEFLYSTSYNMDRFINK
recombinant human 11β-HSD type 1 enzyme, sequence (P28845 whole entry): as above

One may read the IC50 as the concentration needed to halve the response being measured. In the case of “3-(4-Bromo-2-chloro-benzyl)-trans-1-(4-fluoro-cyclohexyl)-pyrrolidin-2-one [Example 10]”, the half-maximal inhibitory concentration (IC50) in assay [1] was 250 nM; in assay [2] it was 33 nM.

Turning to `O=C1C(Cc2ccc(Br)cc2Cl)CCN1[C@H]1CC[C@@H](F)CC1` (stereo partly drawn) [Example 11, 3-(4-Bromo-2-chloro-benzyl)-cis-1-(4-fluoro-cyclohexyl)-pyrrolidin-2-one], the 50% inhibitory concentration (IC50) in assay [1] is 446 nM; in assay [2] it was 7.5 nM.

Regarding `O=C1C(Cc2c(Cl)cc(-c3cccnc3)cc2Cl)CCN1[C@H]1CC[C@@H](F)CC1` (stereo partly drawn) [Example 12, 3-(2,6-Dichloro-4-pyridin-3-yl-benzyl)-cis-1-(4-fluoro-cyclohexyl)-pyrrolidin-2-one], the IC50 in assay [1] is 260 nM; in assay [2] it was 3.9 nM.

`Cn1cc(-c2cc(Cl)c(C[C@@H]3CCN(C4CCC(F)(F)CC4)C3=O)c(Cl)c2)cn1` [Example 6, (R)-3-[2,6-Dichloro-4-(1-methyl-1H-pyrazol-4-yl)-benzyl]-1-(4,4-difluoro-cyclohexyl)-pyrrolidin-2-one]: the IC50 in assay [1] turned out to be 302 nM; in assay [2], 9.1 nM.

For `O=C1[C@H](Cc2c(Cl)cc(-c3ccc(F)cc3)cc2Cl)CCN1C1CCC(F)(F)CC1` [Example 3, (R)-3-(3,5-Dichloro-4′-fluoro-biphenyl-4-ylmethyl)-1-(4,4-difluoro-cyclohexyl)-pyrrolidin-2-one], the IC50 turned out to be 364 nM in assay [1] and 9.6 nM in assay [2].
